Converted amounts (≈) assume the structure as drawn. Read-outs that look alike come from different tables or passages of the source.
How the values were obtained:
Assay type in all cases: cell-based
[1] = tested on: multidrug-resistant (MDR) K. pneumoniae isolates (n = 102); experiment: MIC by microdilution, clinical isolates; details: Klebsiella pneumoniae, Total MDR K. pneumoniae isolates (n = 102)
Description: (§1) The in vitro activity of representative antibacterial aminoglycoside compounds against a collection of 102 K. pneumoniae clinical isolates collected from January 2006 to October 2007 at the University of Pittsburgh Medical Center, and three Cleveland institutions including University Hospitals Case Medical Center, the Cleveland Clinic, and the Louis Stokes Department of Veterans Affairs Medical Center was analyzed. The 102 K. pneumoniae isolates were selected based on a multidrug-resistant (MDR) phenotype (i.e., resistance to >3 antibiotic classes). Twenty-five isolates were KPC carbapenemase producing (KPC-Kp), and were part of a previous study where the β-lactamase background and clonality were characterized (see Endimiani, A., A. M. Hujer, F. Perez, C. R. Bethel, K. M. Hujer, J. Kroeger, M. Oethinger, D. L. Paterson, M. D. Adams, M. R. Jacobs, D. J. Diekema, G. S. Hall, S. G. Jenkins, L. B. Rice, F. C. Tenover, and R. A. Bonomo. 2009. Characterization of blaKPC-containing Klebsiella pneumoniae isolates detected in different institutions in the Eastern USA. J Antimicrob Chemother 63:427-37).
(§2) Minimum inhibitory concentrations (MICs) were performed by microdilution method using cation-adjusted Mueller-Hinton broth, according to the Clinical and Laboratory Standards Institute (CLSI) criteria (see CLSI. 2006. Methods for dilution antimicrobial susceptibility tests for bacteria that grow aerobically; approved standard-Seventh edition. Clinical and Laboratory Standard Institute, Wayne, Pa. CLSI document M7-A7). These MIC assays were conducted following the same protocol as set forth in Example 110. […] The following ATCC control strains were used: Escherichia coli ATCC 25922, Pseudomonas aeruginosa ATCC 27853, and K. pneumoniae ATCC 700603.

[2] = tested on: K. pneumoniae producing KPC (n = 25); experiment: MIC by microdilution, clinical isolates; details: Klebsiella pneumoniae
Description: as §1, §2

[3] = tested on: P. aeruginosa ATCC 27853 (APAE001); experiment: MIC assay, CLSI broth microdilution; details: Pseudomonas aeruginosa
How it was run: (§3)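 Broth microdilution per CLSI M7-A7, with serial two-fold compound dilutions in Mueller Hinton Broth mixed 1:1 with inoculum. Colonies from a previous-day agar plate were suspended in saline to a final 5×10^5 CFU/mL. Plates were incubated 20 hours at 35° C. in ambient air.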

[4] = tested on: E. coli ATCC 25922 (AECO001); experiment: MIC assay, CLSI broth microdilution; set-up: MIC AECO001: unit not given here; details: for MIC: Escherichia coli; for MIC AECO001: Table 3, E. coli ATCC25922
How it was run: as §3

[5] = Table 1, APAE001 is ATCC27853, read-out: MIC APAE001
[6] = Table 1, AECO001 is ATCC25922, read-out: MIC AECO001
[7] = ATCC27853, read-out: MIC APAE001
[8] = ATCC25922, read-out: MIC AECO001

| Compound | MIC [3, 7] [µg/mL] | MIC [4, 8] [µg/mL] | other results |
| --- | --- | --- | --- |
| NCC[C@H](O)C(=O)N[C@@H]1C[C@H](N)[C@@H](O[C@H]2O[C@H](CN)CC[C@H]2N)[C@H](O)[C@H]1O[C@H]1O[C@H](CO)[C@@H](O)[C@H](N)[C@H]1O [Arbekacin, arbekacin] | – | – | MIC50 ([1]; read-out: MIC50): 4 µg/mL (≈ 7.24 µM); MIC90 ([1]; read-out: MIC90): 16 µg/mL (≈ 29 µM); MIC50 ([2]; K. pneumoniae producing KPC (n = 25), read-out: MIC50): 8 µg/mL (≈ 14.5 µM); MIC90 ([2]; K. pneumoniae producing KPC (n = 25), read-out: MIC90): 16 µg/mL (≈ 29 µM); MIC ([2]; all KPC-Kp strains, read-out: MICs of all strains): < 32 µg/mL |
| CN[C@@H]1[C@@H](O)[C@@H](O[C@@H]2[C@@H](O)[C@H](O[C@H]3OC(CNCC4CC4)=CC[C@H]3N)[C@@H](N)C[C@H]2NC(=O)[C@@H](O)CN)OC[C@]1(C)O [Example 13, 6′-(Methyl-cyclopropyl)-1-(3-amino-2(S)-hydroxy-propionyl)-sisomicin] | – | – | MIC [3, 5]: > 16 µg/mL; MIC [4, 6]: 1 to 16 µg/mL (≈ 1.7 to 27.2 µM); MIC AECO001 [4]: 1 |
| CN[C@@H]1[C@@H](O)[C@@H](O[C@@H]2[C@@H](O)[C@H](O[C@H]3OC(CNCCCN)=CC[C@H]3N)[C@@H](N)C[C@H]2NC(=O)[C@@H](O)CCN)OC[C@]1(C)O [Example 48, 6′-(3-Amino-propyl)-1-(4-amino-2(S)-hydroxy-butyryl)-sisomicin] | – | – | MIC [3, 5]: 1 to 16 µg/mL (≈ 1.65 to 26.4 µM); MIC [4, 6]: < 1 µg/mL; MIC AECO001 [4]: 1 |
| CN[C@@H]1[C@@H](O)[C@@H](O[C@@H]2[C@@H](O)[C@H](O[C@H]3OC(CN)=CC[C@H]3NC[C@H](C)N)[C@@H](N)C[C@H]2NC(=O)[C@@H](O)CCN)OC[C@]1(C)O [Example 95, 2′-(2(S)-Amino-propyl)-1-(4-amino-2(S)-hydroxy-butyryl)-sisomicin] | > 16 | < 1 | – |
| CN[C@@H]1[C@@H](O)[C@@H](O[C@@H]2[C@@H](O)[C@H](O[C@H]3OC(CN)=CC[C@H]3NCC(C)(C)CN(C)C)[C@@H](N)C[C@H]2NC(=O)[C@@H](O)CCN)OC[C@]1(C)O [Example 94, 2′-(N,N-Dimethyl-2,2-dimethyl-3-amino-propyl)-1-(4-amino-2(S)-hydroxy-butyryl)-sisomicin] | > 16 | 1 to 16 (≈ 1.51 to 24.2 µM) | – |
| CN[C@@H]1[C@@H](O)[C@@H](O[C@@H]2[C@@H](O)[C@H](O[C@H]3OC(CNCCNC4CNC4)=CC[C@H]3N)[C@@H](N)C[C@H]2NC(=O)[C@@H](O)CN)OC[C@]1(C)O [Example 81, 6′-(N-(Azetidin-3-yl)-2-amino-ethyl)-1-(3-amino-2(S)-hydroxy-propionyl)-sisomicin] | > 16 | 1 to 16 (≈ 1.58 to 25.3 µM) | – |
| CN[C@@H]1[C@@H](O)[C@@H](O[C@@H]2[C@@H](O)[C@H](O[C@H]3OC(CNCC4(CN)CC4)=CC[C@H]3N)[C@@H](N)C[C@H]2NC(=O)C2(O)CCNC2)OC[C@]1(C)O (stereo partly shown) [Example 79] | > 16 | 1 to 16 (≈ 1.55 to 24.9 µM) | – |
| CN[C@@H]1[C@@H](O)[C@@H](O[C@@H]2[C@@H](O)[C@H](O[C@H]3OC(CN)=CC[C@H]3NCC3CCNC3)[C@@H](N)C[C@H]2NC(=O)[C@@H](O)CCN)OC[C@]1(C)O (stereo partly drawn) [Example 84, 2′-(Methyl-pyrrolidin-3-yl)-1-(4-amino-2(S)-hydroxy-butyryl)-sisomicin] | 1 to 16 (≈ 1.58 to 25.3 µM) | < 1 | – |
| CN[C@@H]1[C@@H](O)[C@@H](O[C@@H]2[C@@H](O)[C@H](O[C@H]3OC(CNCCCN)=CC[C@H]3N)[C@@H](N)C[C@H]2NC(=O)C(O)C2CNC2)OC[C@]1(C)O (stereo partly shown) [Example 76, 6′-(3-Amino-propyl)-1-(2-(azetidin-3-yl)-2-hydroxy-acetyl)-sisomicin] | 1 to 16 (≈ 1.62 to 25.9 µM) | 1 to 16 (≈ 1.62 to 25.9 µM) | – |
| CN[C@@H]1[C@@H](O)[C@@H](O[C@@H]2[C@@H](O)[C@H](O[C@H]3OC(CNC[C@H]4C[C@H](N)C4)=CC[C@H]3NC(=N)N)[C@@H](N)C[C@H]2N)OC[C@]1(C)O [Example 107, 6′-(Methyl-trans-3-amino-cyclobutyl)-2′-guanidinium-sisomicin] | < 1 | 1 to 16 (≈ 1.75 to 27.9 µM) | – |

Reference: US20190374563A1, “TREATMENT OF KLEBSIELLA PNEUMONIAE INFECTIONS WITH ANTIBACTERIAL AMINOGLYCOSIDE COMPOUNDS” (Achaogen, Inc., priority 2009, published 2019)
